Measurements: ChEMBL document CHEMBL5046279, “Discovery of a Partial Glucokinase Activator Clinical Candidate: Diethyl ((3-(3-((5-(Azetidine-1-carbonyl)pyrazin-2-yl)oxy)-5-isopropoxybenzamido)-1H-pyrazol-1-yl)methyl)phosphonate (BMS-820132)” (J Med Chem, 2022)
Values after ≈ are worked out from the molar mass of the structure shown.

Columns and labels:
[1] = AUC (0 to 24 hrs) in Sprague-Dawley rat at 2.5 mg/kg, iv measured upto 24 hrs by LC-MS/MS analysis; format: ADME, organism-based; set-up: route intravenous, dose 2.5 mg/kg, time <=24; details: in vivo
[2] = AUC (0 to 24 hrs) in cynomolgus monkey at 3 mg/kg, po measured upto 24 hrs; format: ADME, organism-based, Macaca fascicularis; set-up: route oral, dose 3 mg/kg, time <=24; details: in vivo
[3] = Microsomal stability in human liver microsomes assessed as parent compound remaining at 0.5 uM measured after 10 mins in presence of NADPH; format: ADME, Microsome; details: read-out: Stability
[4] = Cmax in Beagle dog at 3 mg/kg, po measured upto 24 hrs; format: ADME, organism-based, Canis lupus familiaris; set-up: route oral, dose 3 mg/kg, time <=24; details: in vivo
[5] = Cmax in cynomolgus monkey at 3 mg/kg, po measured upto 24 hrs; format: ADME, organism-based, Macaca fascicularis; set-up: route oral, dose 3 mg/kg, time <=24; details: in vivo
[6] = Tmax in CD1 mouse at 5 mg/kg, po measured upto 24 hrs by LC-MS/MS analysis; format: ADME, organism-based; details: in vivo
[7] = Tmax in Sprague-Dawley rat at 5 mg/kg, po measured upto 24 hrs by LC-MS/MS analysis; format: ADME, organism-based; details: in vivo
[8] = Half life in cynomolgus monkey at 3 mg/kg, iv measured upto 24 hrs; format: ADME, organism-based, Macaca fascicularis; details: in vivo
[9] = Volume of distribution at steady state in Sprague-Dawley rat at 2.5 mg/kg, iv measured upto 24 hrs by LC-MS/MS analysis; format: ADME, organism-based; details: in vivo, read-out: Vdss
[10] = Volume of distribution at steady state in Beagle dog at 3 mg/kg, iv measured upto 24 hrs; format: ADME, organism-based, Canis lupus familiaris; details: in vivo, read-out: Vdss
[11] = Volume of distribution at steady state in cynomolgus monkey at 3 mg/kg, iv measured upto 24 hrs; format: ADME, organism-based, Macaca fascicularis; details: in vivo, read-out: Vdss
[12] = Systemic plasma clearance in Sprague-Dawley rat at 2.5 mg/kg, iv measured upto 24 hrs by LC-MS/MS analysis; format: ADME, organism-based
[13] = Oral bioavailability in Beagle dog at 3 mg/kg measured upto 24 hrs; format: ADME, organism-based, Canis lupus familiaris; details: in vivo
[14] = Oral bioavailability in cynomolgus monkey at 3 mg/kg measured upto 24 hrs; format: ADME, organism-based, Macaca fascicularis; details: in vivo
[15] = AUC (0 to 24 hrs) in CD1 mouse at 2.5 mg/kg, iv measured upto 24 hrs by LC-MS/MS analysis; format: ADME, organism-based; set-up: route intravenous, dose 2.5 mg/kg, time <=24; details: in vivo
[16] = AUC (0 to 24 hrs) in Sprague-Dawley rat at 5 mg/kg, po measured upto 24 hrs by LC-MS/MS analysis; format: ADME, organism-based; set-up: route oral, dose 5 mg/kg, time <=24; details: in vivo
Cytochrome P450 2C8 = target: T1, Cytochrome P450 2C8 (Homo sapiens, UniProt P10632); assay: Inhibition of CYP2C8 (unknown origin); format: ADME
T1 sequence (P10632 whole entry): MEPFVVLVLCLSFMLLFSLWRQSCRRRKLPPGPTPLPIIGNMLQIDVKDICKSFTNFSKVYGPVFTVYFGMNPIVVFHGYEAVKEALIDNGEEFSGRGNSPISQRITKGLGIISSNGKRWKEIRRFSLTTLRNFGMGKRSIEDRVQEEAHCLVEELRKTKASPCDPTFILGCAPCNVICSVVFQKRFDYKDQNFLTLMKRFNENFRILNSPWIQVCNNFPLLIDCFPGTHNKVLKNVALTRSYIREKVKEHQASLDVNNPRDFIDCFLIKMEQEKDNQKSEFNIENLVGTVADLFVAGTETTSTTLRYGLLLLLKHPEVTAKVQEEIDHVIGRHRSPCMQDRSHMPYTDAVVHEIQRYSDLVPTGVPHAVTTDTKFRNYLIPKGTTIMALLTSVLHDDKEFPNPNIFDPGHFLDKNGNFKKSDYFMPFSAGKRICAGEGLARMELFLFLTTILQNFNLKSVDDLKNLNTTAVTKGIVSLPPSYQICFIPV

hERG (KCNH2) = hERG (KCNH2) (Homo sapiens, UniProt Q12809); assay: Inhibition of hERG channel at 30 uM by patch clamp assay relative to control; format: toxicity
hERG (KCNH2), sequence (Q12809 whole entry): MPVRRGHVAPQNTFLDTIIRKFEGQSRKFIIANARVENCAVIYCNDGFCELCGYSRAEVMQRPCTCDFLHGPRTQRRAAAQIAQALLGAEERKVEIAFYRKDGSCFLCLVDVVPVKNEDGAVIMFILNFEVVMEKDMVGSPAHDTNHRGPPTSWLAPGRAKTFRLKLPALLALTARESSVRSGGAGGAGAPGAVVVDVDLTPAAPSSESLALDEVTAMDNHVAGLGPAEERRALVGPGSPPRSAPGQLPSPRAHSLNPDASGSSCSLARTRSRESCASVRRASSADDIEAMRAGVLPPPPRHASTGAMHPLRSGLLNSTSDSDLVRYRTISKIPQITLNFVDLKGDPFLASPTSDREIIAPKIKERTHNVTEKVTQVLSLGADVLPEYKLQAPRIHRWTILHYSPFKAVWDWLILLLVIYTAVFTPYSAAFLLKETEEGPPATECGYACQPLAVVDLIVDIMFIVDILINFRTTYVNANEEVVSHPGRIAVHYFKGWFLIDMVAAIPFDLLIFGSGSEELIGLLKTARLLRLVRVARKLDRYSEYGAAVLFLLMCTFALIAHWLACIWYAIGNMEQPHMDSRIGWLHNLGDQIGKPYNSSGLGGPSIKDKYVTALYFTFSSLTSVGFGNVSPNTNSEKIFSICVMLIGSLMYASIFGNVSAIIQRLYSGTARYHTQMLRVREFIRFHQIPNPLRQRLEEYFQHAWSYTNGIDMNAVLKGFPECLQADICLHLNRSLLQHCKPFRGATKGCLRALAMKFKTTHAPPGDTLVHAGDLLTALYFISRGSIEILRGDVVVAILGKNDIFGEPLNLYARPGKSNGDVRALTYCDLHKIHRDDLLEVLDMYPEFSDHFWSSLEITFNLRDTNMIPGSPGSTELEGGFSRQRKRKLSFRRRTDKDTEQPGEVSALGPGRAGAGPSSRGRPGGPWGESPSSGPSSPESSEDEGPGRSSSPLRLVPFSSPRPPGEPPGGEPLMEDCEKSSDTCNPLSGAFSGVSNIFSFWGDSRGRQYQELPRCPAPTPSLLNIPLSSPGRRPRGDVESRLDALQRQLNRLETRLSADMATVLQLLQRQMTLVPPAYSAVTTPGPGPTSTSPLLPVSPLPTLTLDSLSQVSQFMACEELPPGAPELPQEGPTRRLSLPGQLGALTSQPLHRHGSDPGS

sodium channel = assay: Inhibition of sodium channel (unknown origin) at 4 Hz at 10 uM by patch clamp assay relative to control; format: toxicity; details: human
L-type calcium channel = assay: Inhibition of L-type calcium channel (unknown origin) at 10 uM by patch clamp assay relative to control; format: toxicity; details: human
Salmonella typhimurium = assay: Mutagenicity in Salmonella typhimurium TA1535 at 5000 ug/plate in presence of S9 fraction by Ames test; format: toxicity, organism-based; details: salmonella enterica subsp. enterica serovar typhimurium, dose 5000 µg
Escherichia coli [17] = assay: Mutagenicity in Escherichia coli WP2 uvrA at 5000 ug/plate in presence of S9 fraction by Ames test; format: toxicity, organism-based; details: dose 5000 µg
Escherichia coli [18] = assay: Mutagenicity in Escherichia coli WP2 uvrA at 5000 ug/plate in absence of S9 fraction by Ames test; format: toxicity, organism-based
CHO = assay: Mutagenicity in CHO cells; format: toxicity, cell-based, Cricetulus griseus; details: chinese hamster
[19] = Phototoxicity in BALB/c mouse 3T3 fibroblasts; format: toxicity, cell-based
Hexokinase-4 = target: T2, Hexokinase-4 (Mus musculus, UniProt P52792); assay: Activation of recombinant mouse full length liver glucokinase expressed in Escherichia coli incubated for 10 mins in presence of 12 mM glucose by plate reader analysis
T2 sequence (P52792 whole entry): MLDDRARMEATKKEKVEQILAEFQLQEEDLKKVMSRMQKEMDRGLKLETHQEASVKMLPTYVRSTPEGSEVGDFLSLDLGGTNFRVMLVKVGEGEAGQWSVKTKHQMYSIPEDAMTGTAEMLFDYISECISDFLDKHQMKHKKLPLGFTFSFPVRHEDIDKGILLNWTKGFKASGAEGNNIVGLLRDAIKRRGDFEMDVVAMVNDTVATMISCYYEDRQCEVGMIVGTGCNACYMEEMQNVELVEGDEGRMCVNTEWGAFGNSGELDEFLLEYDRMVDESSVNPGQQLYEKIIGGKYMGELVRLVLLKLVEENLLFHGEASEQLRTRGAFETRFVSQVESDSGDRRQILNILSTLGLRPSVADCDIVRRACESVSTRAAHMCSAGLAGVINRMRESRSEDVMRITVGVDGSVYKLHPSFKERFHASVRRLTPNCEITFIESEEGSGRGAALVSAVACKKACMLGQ

Mus musculus [20] = assay: Anti-hyperglycemic activity in C57BL/6J DIO mouse assessed as reduction in plasma glucose AUC at 10 umol/kg incubated for 120 mins by OGTT; format: functional; set-up: scale not given: the % may be the effect or the level left; details: dose 10 µM/Kg, 2 h, at 10 µmol/kg
Mus musculus [21] = assay: Anti-hyperglycemic activity in C57BL/6J DIO mouse assessed as reduction in plasma glucose AUC at 30 umol/kg, po measured after 120 mins by OGTT; format: functional; set-up: scale not given: the % may be the effect or the level left; details: dose 30 µM/Kg, 2 h, at 30 µmol/kg
Mus musculus [22] = assay: Anti-hyperglycemic activity in C57BL/6J DIO mouse assessed as reduction in plasma glucose AUC at 0.3 umol/kg incubated for 120 mins by OGTT; format: functional; set-up: scale not given: the % may be the effect or the level left; details: dose 0.3 µM/Kg, 2 h, at 0.3 µmol/kg
Mus musculus [23] = assay: Anti-hyperglycemic activity in C57BL/6J DIO mouse assessed as reduction in plasma glucose AUC at 3 umol/kg incubated for 120 mins by OGTT; format: functional; set-up: scale not given: the % may be the effect or the level left; details: dose 3 µM/Kg, 2 h, at 3 µmol/kg
[24] = Aqueous solubility of the compound at pH 6.5 using crystaline form of sample; format: physicochemical
[25] = Permeability of compound at pH >= 5.5 by PAMPA assay; format: ADME; details: read-out: permeability
[26] = Protein binding in human serum; format: ADME, cell-free; details: read-out: PB (converted)

With `CCOP(=O)(Cn1ccc(NC(=O)c2cc(Oc3cnc(C(=O)N4CCC4)cn3)cc(OC(C)C)c2)n1)OCC` the AUC(0-t) [1] was 16.6 µM·h, the AUC(0-t) [2] was 0.57 µM·h and the remaining at 10 min, 0.5 µM [3] was 96%. It also gave a Cmax [4] of 4.9 µM, a Cmax [5] of 380 nM and a Tmax [6] of 30 min. For the same compound, the Tmax [7] was 54 min, the half-life [8] was 114 min and the Vd [9] was 0.3 L/kg. The Vd [10] was 0.5 L/kg, the Vd [11] was 1.1 L/kg and the clearance [12] was 4.4 mL/min/kg. It also gave a bioavailability [13] of 66%, a bioavailability [14] of 15% and an AUC(0-t) [15] of 24.9 µM·h. It also gave an AUC(0-t) [16] of 29.5 µM·h, an IC50 (Cytochrome P450 2C8) of 7.7 µM and an inhibition at 30 µM (hERG (KCNH2)) of 29%. For the same compound, the inhibition at 10 µM (sodium channel) was 12%, the inhibition at 10 µM (L-type calcium channel) was 13% and the Activity (Salmonella typhimurium) was “Non-Toxic”. For the same compound, the Activity (Escherichia coli [17]) was “Non-Toxic”, the Activity (Escherichia coli [18]) was “Non-Toxic” and the Activity (CHO) was “Toxic”. The Activity [19] was “Toxic”, the EC50 (Hexokinase-4) was 32 nM and the Activity (Mus musculus [20]) was -62%. It also gave an Activity (Mus musculus [21]) of -59%, an Activity (Mus musculus [22]) of -18% and an Activity (Mus musculus [23]) of -50%. For the same compound, the solubility [24] was 10 µg/mL (≈ 17.5 µM), the Papp [25] was > 40 ×10⁻⁶ cm/s and the fraction unbound [26] was 0.054.
